Here are results for 1 compound from patent US20100040544A1, “METHOD FOR MANAGING PATIENTS WITH CANCER” (priority 2006, published 2010).

The series can be described thus: T1 relaxation in human full blood. The format is physicochemical. The note with it: in human full blood at 37° C.

Regarding `CC(=O)[13C](=O)O` [^13C1-pyruvate], the T1 relaxation entry is given as “about 42 s”.
